Measured values published in patent US10292973B2, “Covalent irreversible inhibitors of USP7 as anti-cancer agents” (PROGENRA, INC., priority 2015, dated 2019).
“Also recorded” adds a separate entry of the source.

Legend:
USP7core WT = target: T1, USP7core WT (Homo sapiens, UniProt Q93009); assay: Covalent adduct formation with purified USP7core WT by LC-MS; format: binding; settings: 5 μM USP7core WT, 100 μM compound, room temperature, 4 h
T1 construct: 5 μM purified USP7core WT or active site cysteine mutant C223A were incubated
Experimental: (§1) FIG. 4 provides data showing an example of the covalent irreversible nature of disclosed USP7 inhibitors. 5 μM purified USP7core WT or active site cysteine mutant C223A were incubated with 100 μM Compound 5 or DMSO at room temperature for 4 hrs, and then the protein/compound reaction products were mixed with equal volume of 0.1% Trifluoroacetic acid (TFA) before LC-MS injection. The samples were analyzed by reverse-phase liquid chromatography coupled to UV and MS detection (Agilent, 6220 Accurate-Mass Time-of-Flight (TOF) LC/MS). […] 5μM purified USP7core WT or C223A were incubated with 100 μM of an exemplary compound of the present invention (for example, Compound 5) or DMSO at room temperature for 4 h, and then the protein/compound reaction products were mixed with equal volume of 0.1% Trifluoroacetic acid (TFA). The samples were analyzed by reverse-phase liquid chromatography coupled to UV and MS detection (Agilent, 6220 Accurate-Mass Time-of-Flight (TOF) LC/MS).

USP7core C223A = USP7core C223A (Homo sapiens, UniProt Q93009, C223A); assay: Covalent adduct formation with active site cysteine mutant USP7core C223A by LC-MS; format: binding; settings: 5 μM USP7core C223A, 100 μM compound, room temperature, 4 h
Experimental: as §1

USP7 = target: T2, USP7 (Homo sapiens, UniProt Q93009); assay: DUB activity of USP7 immunoprecipitated from treated Jurkat cells (Ub-EKL assay), pulse treatment and washout; format: cell-based; settings: washed; for USP7 catalytic activity returned: Jurkat cells exposed 2 hours, immunoprecipitated USP7
T2 construct: USP7 was immuno-precipitated from lysates and USP7 activity measured; endogenous in cells; host or cells: Jurkat cells
Experimental: FIG. 5A-FIG. 5C graphically illustrate examples of the disclosed USP7 inhibitors of the invention that are irreversible inhibitors. Jurkat cells were treated with 10 μM USP7i for indicated time period (FIG. 5A) or pulse treated for 2 h with 10 μM compound 5 (FIG. 5B), washed and incubated for the indicated time period followed by DUB activity measurement of immunoprecipitated USP7 as well as total cell lysate (FIG. 5C) using Ub-EKL assay as described previously (U.S. Pat. No. 8,680,139). A portion of the immunoprecipitated USP7 is separated on 10% SDS-PAGE and immunoblotted with anti-USP7 antibody to detect the level of USP7 protein (shown at the top of graphs in FIG. 5A and FIG. 5B). […] Jurkat cells were exposed to compound 5 for 2 hours and the compounds were washed away followed by incubation for various time points. Cells were harvested, lysed and their USP7 immunoprecipitated and washed with buffer. […] Jurkat cells were incubated with an exemplary compound of the present invention (e.g., compound 5), washed, and incubated for an additional 0-96 h. USP7 was immuno-precipitated from lysates and USP7 activity measured. […] Total cell deubiquitinase activity can be performed to determine selectivity of these compounds (FIG. 5C). These experiments delineate a simple, powerful biomarker for determining the dose-efficacy relationship in the pre-clinical/clinical evaluation of irreversible USP7 inhibitors. Inhibitors were also tested in cells for effects on various PD markers, including three major USP7 substrates, DNMT1, UHRF1 and HDM2 .

DNMT1, UHRF1 and HDM2 = assay: Immunoblot of USP7 substrates DNMT1, UHRF1 and HDM2 in Jurkat cells; format: cell-based; settings: 24 h treatment, immunoblot (FIG. 6)
Experimental: FIG. 6 graphically illustrates a decrease in USP7 oncogenic substrates DNMT1, UHRF1 and HDM2 levels in Jurkat cells treated with the USP7i compound 5. 20 μg total cell lysates from each samples were separated on 10% SDS-PAGE and immunoblotted with antibodies against DNMT1, UHRF1, HDM2 and Actin (loading control).
Jurkat cells were incubated with an exemplary compound of the present invention (e.g., compound 5), washed, and incubated for an additional 0-96 h. USP7 was immuno-precipitated from lysates and USP7 activity measured. […] Total cell deubiquitinase activity can be performed to determine selectivity of these compounds (FIG. 5C). These experiments delineate a simple, powerful biomarker for determining the dose-efficacy relationship in the pre-clinical/clinical evaluation of irreversible USP7 inhibitors. Inhibitors were also tested in cells for effects on various PD markers, including three major USP7 substrates, DNMT1, UHRF1 and HDM2 .

[1] = pooled analysis of 14 phase I-III studies, various doses; cited from earlier work

T2 sequence (Q93009 whole entry): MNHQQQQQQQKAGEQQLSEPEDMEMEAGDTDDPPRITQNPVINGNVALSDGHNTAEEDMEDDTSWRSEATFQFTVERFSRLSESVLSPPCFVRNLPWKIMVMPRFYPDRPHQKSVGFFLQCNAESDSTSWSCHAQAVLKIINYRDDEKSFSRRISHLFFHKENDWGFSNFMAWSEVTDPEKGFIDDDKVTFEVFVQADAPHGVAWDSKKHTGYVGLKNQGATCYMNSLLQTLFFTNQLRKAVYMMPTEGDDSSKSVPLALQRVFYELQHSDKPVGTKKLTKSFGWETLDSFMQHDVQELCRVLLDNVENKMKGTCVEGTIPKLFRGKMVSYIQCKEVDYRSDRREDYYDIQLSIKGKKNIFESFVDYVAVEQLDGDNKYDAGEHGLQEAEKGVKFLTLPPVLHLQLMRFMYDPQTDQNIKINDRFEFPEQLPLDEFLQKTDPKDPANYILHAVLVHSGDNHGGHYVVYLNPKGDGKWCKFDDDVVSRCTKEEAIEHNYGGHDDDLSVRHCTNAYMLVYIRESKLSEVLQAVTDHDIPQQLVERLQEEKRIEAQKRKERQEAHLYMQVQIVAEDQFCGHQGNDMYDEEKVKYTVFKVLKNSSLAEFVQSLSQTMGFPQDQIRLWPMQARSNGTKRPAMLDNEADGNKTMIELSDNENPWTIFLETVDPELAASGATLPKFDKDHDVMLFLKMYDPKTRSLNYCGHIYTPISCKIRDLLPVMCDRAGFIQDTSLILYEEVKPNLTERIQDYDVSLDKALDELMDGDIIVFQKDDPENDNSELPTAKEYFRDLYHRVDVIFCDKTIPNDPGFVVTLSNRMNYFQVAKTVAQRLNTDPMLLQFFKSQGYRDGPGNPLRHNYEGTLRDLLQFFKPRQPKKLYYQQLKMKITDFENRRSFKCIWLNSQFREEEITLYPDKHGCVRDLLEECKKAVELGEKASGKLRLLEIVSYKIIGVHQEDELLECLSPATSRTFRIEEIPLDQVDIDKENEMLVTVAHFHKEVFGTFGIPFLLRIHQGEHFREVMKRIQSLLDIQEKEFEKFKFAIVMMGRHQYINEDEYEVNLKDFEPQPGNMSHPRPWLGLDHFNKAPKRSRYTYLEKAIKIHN
USP7core C223A, sequence (Q93009 214-521 C223A limits assumed): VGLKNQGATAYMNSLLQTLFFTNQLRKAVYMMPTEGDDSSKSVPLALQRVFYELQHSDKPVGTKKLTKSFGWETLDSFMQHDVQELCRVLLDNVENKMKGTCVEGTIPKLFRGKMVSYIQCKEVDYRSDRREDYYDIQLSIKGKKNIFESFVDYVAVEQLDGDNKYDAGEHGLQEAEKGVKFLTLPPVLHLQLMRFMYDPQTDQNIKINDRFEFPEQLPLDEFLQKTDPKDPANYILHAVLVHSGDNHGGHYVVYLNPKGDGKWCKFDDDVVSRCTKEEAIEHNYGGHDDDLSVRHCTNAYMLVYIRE
T1 sequence (Q93009 214-521 limits assumed): as the sequence (Q93009 214-521 C223A limits assumed) above, with A10C counted along it

| Molecule | covalent adduct formation with wild type USP7 core (USP7core WT) | covalent adduct formation with active site mutant USP7 core C223A (USP7core C223A) | USP7 catalytic activity returned (USP7; 48 hours after washout) | USP7 catalytic activity returned (USP7; 72 hours after washout) [%] | inhibition of USP7 activity after pulse treatment (USP7; Jurkat cells, 10 μM for 2 h, up to 72 h (FIG. 5B)) | DNMT1 level (DNMT1, UHRF1 and HDM2) | HDM2 level (DNMT1, UHRF1 and HDM2) | UHRF1 level (DNMT1, UHRF1 and HDM2) | patients who experienced immune-related adverse effects [1] [%] |
| --- | --- | --- | --- | --- | --- | --- | --- | --- | --- |
| CS(=O)(=O)c1cccc(NC(=O)c2cc([N+](=O)[O-])c(Sc3c(Cl)cncc3Cl)s2)c1 [compound 5, 5-[(3,5-dichloropyridin-4-yl)sulfanyl]-N-[3-(methylsulfonyl)phenyl]-4-nitrothiophene-2-carboxamide] | covalent irreversible adduct formation; also recorded: formed a covalent adduct | not in the active site cysteine mutant enzyme; also recorded: failed to form an adduct | about 55% | 68 | prolonged inhibition of USP7 activity, even after 72 h | decrease | decrease | decrease |  |
| ipilimumab |  |  |  |  |  |  |  |  | 64 |
